This experiment addresses T1, p38α (Homo sapiens, UniProt Q16539).
T1 construct: purchased Calbiochem 559324; host or cells: E. coli
The experiment can be described thus: p38 Kinase Assay (ATF-2 phosphorylation ELISA). The class given is biochemical. To be noted: human recombinant p38 activated with MKK6; 2 h preincubation; ATP 250 μM; 1% DMSO; read-out: p38α inhibition. On the procedure:
Human recombinant p38 enzyme expressed in E. coli and activated by incubation with MKK6 enzyme (Calbiochem #559324) is used as source of enzyme activity.
The assay is carried in high binding, clear, flat bottom 96 well assay plates which have been coated with recombinant ATF-2 (Biosource #PHF0043). Test compounds are incubated with p38 kinase for 2 h prior to initiating the kinase assay by the addition of ATP to obtain an assay concentration of 250 μM. Phosphorylation of ATF-2 is detected and quantified using an ELISA. This consists of sequential incubation in the presence of anti-phospho-ATF2, biotinylated anti-IgG and streptavidin-HRP. Incubation with an HRP chromogenic substrate (TMB) results in absorbance that is proportional to the amount of phosphorylated substrate produced. Absorbance is detected using a multiwell plate reader.
Compounds are diluted in DMSO prior to addition to assay buffer, the final DMSO concentration in the assay being 1%.
The IC50 is defined as the concentration at which a given compound achieves 50% inhibition of control.
(An ELISA detects its analyte on a solid surface through an enzyme-linked reagent.)

SMILES strings stand for the structures.

T1 sequence (Q16539 whole entry): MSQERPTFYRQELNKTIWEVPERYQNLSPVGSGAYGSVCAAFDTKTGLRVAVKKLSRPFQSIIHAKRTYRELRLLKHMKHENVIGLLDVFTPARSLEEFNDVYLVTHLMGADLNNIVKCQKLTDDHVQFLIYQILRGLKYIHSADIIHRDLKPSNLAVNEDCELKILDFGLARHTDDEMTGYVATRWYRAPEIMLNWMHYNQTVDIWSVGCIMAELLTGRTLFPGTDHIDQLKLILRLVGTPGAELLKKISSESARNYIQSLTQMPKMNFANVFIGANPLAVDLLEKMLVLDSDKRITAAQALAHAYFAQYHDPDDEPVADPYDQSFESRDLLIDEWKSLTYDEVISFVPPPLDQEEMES

Regarding `NC(=O)C(c1ccc(Sc2ccccc2CNC(=O)c2cc(F)cc(N3CCOCC3)c2)nn1)c1c(Cl)cccc1Cl` (centres unmarked) [Example 1, N-[2-({6-[2-Amino-1-(2,6-dichlorophenyl)-2-oxoethyl]pyridazin-3-yl}sulfanyl)benzyl]-3-fluoro-5-(morpholin-4-yl)benzamide], the IC50 is less than 10 nM. For `O=C(NCc1ccccc1Sc1ccc2c(-c3c(Cl)cccc3Cl)c(=O)ncn2n1)c1cc(F)cc(N2CCOCC2)c1` [Example 2, N-(2-{[5-(2,6-Dichlorophenyl)-6-oxo-6H-pyrimido[1,6-b]pyridazin-2-yl]sulfanyl}benzyl)-3-fluoro-5-(morpholin-4-yl)benzamide] the value was less than 100 nM.

These data come from patent US8450314B2, “Pyrimidopyridazine derivatives useful as P38 MAPK inhibitors” (Chiesi Farmaceutici S.p.A., priority 2009, dated 2013).
